According to publication doi:10.1101/212431v1, “Genetic variation across the human olfactory receptor repertoire alters odor perception” (biorxiv, 2017):

Molecular target: T1, OR11A1 (reference haplotype MA) (Homo sapiens, UniProt Q9GZK7)
T1 construct: Hana3A cells co-transfected with RTP1S and M3-R
T1 sequence (Q9GZK7 1-315): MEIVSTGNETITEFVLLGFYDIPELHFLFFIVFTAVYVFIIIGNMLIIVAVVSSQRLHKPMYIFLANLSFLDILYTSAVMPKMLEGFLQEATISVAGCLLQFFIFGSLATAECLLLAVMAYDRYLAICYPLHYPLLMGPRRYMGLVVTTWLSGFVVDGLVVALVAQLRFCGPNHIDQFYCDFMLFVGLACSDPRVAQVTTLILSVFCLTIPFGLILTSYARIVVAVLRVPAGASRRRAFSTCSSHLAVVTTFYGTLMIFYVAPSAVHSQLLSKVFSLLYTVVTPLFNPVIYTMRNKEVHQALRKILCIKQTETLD
Test: CRE-luciferase reporter assay in Hana3A cells
Format: cell-based
Details: read-out: log(EC50 of reference MA) (converted)

Structure (SMILES): CCC1(O)C2(C)CCC(C2)C1(C)C (stereo not shown) [2-ethylfenchol]
- EC50: 158 nM
